Legend:
[1] = target: T1, human CYP11B1 (Homo sapiens, UniProt P15538); test: G-402 cellular enzyme assay, human CYP11B1 (cortisol release, HTRF); assay type: cell-based; details: G-402 cells, 1 μM Deoxycortisol
T1 construct: expressed in transfected cells
T1 sequence (P15538 25-503): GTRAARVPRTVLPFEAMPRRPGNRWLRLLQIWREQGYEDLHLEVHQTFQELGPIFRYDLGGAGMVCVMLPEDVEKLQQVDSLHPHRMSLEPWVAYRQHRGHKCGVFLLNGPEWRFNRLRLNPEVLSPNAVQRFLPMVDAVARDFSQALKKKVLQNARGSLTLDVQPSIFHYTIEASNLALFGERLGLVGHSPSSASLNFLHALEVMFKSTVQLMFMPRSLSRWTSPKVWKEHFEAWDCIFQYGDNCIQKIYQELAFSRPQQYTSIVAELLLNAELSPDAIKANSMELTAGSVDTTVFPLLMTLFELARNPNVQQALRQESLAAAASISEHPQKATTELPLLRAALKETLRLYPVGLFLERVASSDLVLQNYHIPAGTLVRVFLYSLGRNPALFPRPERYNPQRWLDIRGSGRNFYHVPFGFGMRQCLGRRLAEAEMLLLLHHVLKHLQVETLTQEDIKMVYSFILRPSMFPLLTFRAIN
From the text: (§1) Herein we identified the use of the G-402 cell line as a host cell to ectopically express (transiently or stably) enzymes of the CYP11 family. Specifically we developed stable G-402 cells expressing ectopically human CYP11B1, human CYP11B2, human CYP11A1, cynmolgus CYP11B1 or cynomolgus CYP11B2 enzyme activity. Importantly the identified cell line G-402 expresses co-factors (adrenodoxin and adrenodoxin reductase) important for the activity of the CYP11 family and no relevant enzyme activity of the CYP11 family (in comparison to H295R cells) was detected in these cells. Therefore the G-402 cell line is uniquely suited as a host cell for the ectopic expression of enzymes from the CYP11 family.
(§2) G-402 cells can be obtained from ATCC(CRL-1440) and were originally derived from a renal leiomyoblastoma.
(§3) The expression plasmids contain the ORF for either human/cyno CYP11B1 or CYP11B2 under the control of a suitable promoter (CMV-promoter) and a suitable resistance marker (neomycin). Using standard techniques the expression plasmid is transfected into G-402 cells and these cells are then selected for expressing the given resistance markers. Individual cell-clones are then selected and assessed for displaying the desired enzymatic activity using 11-Deoxycorticosterone (Cyp11B2) or 11-Deoxycortisol (Cyp11B1) as a substrate.
(§4) G-402 cells expressing CYP11 constructs were established as described above and maintained in McCoy's 5a Medium Modified, ATCC Catalog No. 30-2007 containing 10% FCS and 400 μg/ml G418 (Geneticin) at 37° C. under an atmosphere of 5% CO2/95% air.
(§5) Cellular enzyme assays were performed in DMEM/F12 medium containing 2.5% charcoal treated FCS and appropriate concentration of substrate (0.3-10 uM 11-Deoxycorticosterone, 11-Deoxycortisol or Corticosterone). For assaying enzymatic activity, cells were plated onto 96 well plates and incubated for 16 h. An aliquot of the supernatant is then transferred and analyzed for the concentration of the expected product (Aldosterone for CYP11B2; Cortisol for CYP11B1). The concentrations of these steroids can be determined using HTRF assays from CisBio analyzing either Aldosterone or Cortisol.
(§6) Inhibition of the release of produced steroids can be used as a measure of the respective enzyme inhibition by test compounds added during the cellular enzyme assay. The dose dependent inhibition of enzymatic activity by a compound is calculated by means of plotting added inhibitor concentrations (x-axes) vs. measured steroid/product level (y-axes). The inhibition is then calculated by fitting the following 4-parameter sigmoidal function (Morgan-Mercer-Flodin (MMF) model) to the raw data points using the least squares method:
(§7) [formula] wherein, A is the maximum y value, B is the EC50 factor determined using XLFit, C is the minimum y value and D is the slope value.
(§8) EC50 values for compounds claimed herein were tested with the G402-based assay system described. Cyp11B2 enzyme activity was tested in presence of 1 μM Deoxycorticosterone and variable amounts of inhibitors; Cyp11B1 enzyme activity was tested in presence of 1 μM Deoxycortisol and variable amounts of inhibitors.

[2] = target: T2, human CYP11B2 (Homo sapiens, UniProt P19099); test: G-402 cellular enzyme assay, human CYP11B2 (aldosterone release, HTRF); assay type: cell-based; details: G-402 cells, 1 μM Deoxycorticosterone
T2 construct: expressed in transfected cells
T2 sequence (P19099 25-503): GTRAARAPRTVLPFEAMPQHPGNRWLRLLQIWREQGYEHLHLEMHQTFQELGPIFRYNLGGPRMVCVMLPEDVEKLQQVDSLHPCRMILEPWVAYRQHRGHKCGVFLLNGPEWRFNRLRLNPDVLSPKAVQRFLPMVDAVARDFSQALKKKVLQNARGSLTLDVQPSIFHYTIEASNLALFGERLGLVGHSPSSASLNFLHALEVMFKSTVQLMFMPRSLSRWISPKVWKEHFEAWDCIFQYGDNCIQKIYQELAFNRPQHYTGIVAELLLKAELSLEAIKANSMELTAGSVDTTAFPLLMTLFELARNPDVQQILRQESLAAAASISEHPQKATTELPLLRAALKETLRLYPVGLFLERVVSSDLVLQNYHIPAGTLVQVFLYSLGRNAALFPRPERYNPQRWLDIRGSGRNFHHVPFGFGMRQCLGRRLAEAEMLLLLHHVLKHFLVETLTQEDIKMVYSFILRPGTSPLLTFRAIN
From the text: as §1, §2, §3, §4, §5, §6, §7, §8

| Compound | EC50 [1] | EC50 [2] |
| --- | --- | --- |
| O=C(Nc1cncc(N2CCc3cc(Cl)ccc3C2=O)c1)C1CC1 [Example 248, Cyclopropanecarboxylic acid [5-(6-chloro-1-oxo-3,4-dihydro-1H-isoquinolin-2-yl)-pyridin-3-yl]-amide] | 2650 nM | – |
| CC(C)OCc1cncc(N2CCc3cc(Cl)ccc3C2=O)c1 [Example 194, 6-Chloro-2-(5-isopropoxymethyl-pyridin-3-yl)-3,4-dihydro-2H-isoquinolin-1-one] | 224 nM | 20.3 nM |
| Cc1ccnn1Cc1cncc(N2CCc3cc(Cl)ccc3C2=O)c1 [Example 71, 6-Chloro-2-[5-(5-methyl-pyrazol-1-ylmethyl)-pyridin-3-yl]-3,4-dihydro-2H-isoquinolin-1-one] | 1580 nM | 90.2 nM |
| Cn1ncc2c(N3CCc4cc(Cl)ccc4C3=O)cncc21 [Example 27, 6-Chloro-2-(1-methyl-1H-pyrazolo[3,4-c]pyridin-4-yl)-3,4-dihydro-2H-isoquinolin-1-one] | 731 nM | 75.3 nM |
| CCC(=O)N[C@H]1CCCc2c1cncc2N1C(=O)c2ccc(Cl)cc2[C@@H]1C (single isomer, unassigned) [Example 362, N-[(S or R)-4-((S or R)-5-Chloro-3-methyl-1-oxo-1,3-dihydro-isoindol-2-yl)-5,6,7,8-tetrahydro-isoquinolin-8-yl]-propionamide] | 6090 nM | 53.2 nM |
| CC1(C)c2cc(Cl)ccc2C(=O)N1c1cncc(CN2CCOC2=O)c1 [Example 412, 5-Chloro-3,3-dimethyl-2-[5-(2-oxo-oxazolidin-3-ylmethyl)-pyridin-3-yl]-2,3-dihydro-isoindol-1-one] | 1670 nM | 46.6 nM |
| CS(=O)(=O)NC1CCc2c1cncc2N1Cc2cc(Cl)ccc2C1=O (single isomer, unassigned) [Example 335, N-[(S or R)-4-(5-Chloro-1-oxo-1,3-dihydro-isoindol-2-yl)-6,7-dihydro-5H-[2]pyrindin-7-yl]-methanesulfonamide] | – | 13800 nM |
| N#Cc1ccncc1N1CCc2cc(Cl)ccc2C1=O [Example 74, 3-(6-Chloro-1-oxo-3,4-dihydro-1H-isoquinolin-2-yl)-isonicotinonitrile] | – | 449 nM |
| Cn1cnnc1-c1cncc(N2CCc3cc(Cl)ccc3C2=O)c1 [Example 58, 6-Chloro-2-[5-(4-methyl-4H-[1,2,4]triazol-3-yl)-pyridin-3-yl]-3,4-dihydro-2H-isoquinolin-1-one] | – | 2060 nM |
| CS(=O)(=O)Nc1cncc(N2CCc3cc(Cl)ccc3C2=O)c1 [Example 220, N-[5-(6-Chloro-1-oxo-3,4-dihydro-1H-isoquinolin-2-yl)-pyridin-3-yl]-methanesulfonamide] | – | 1080 nM |
| CS(=O)(=O)NC1CCCc2c1cncc2N1CCc2cc(Cl)ccc2C1=O (single isomer, unassigned) [Example 324, N-((S or R)-6-Chloro-1-oxo-3,4,5′,6′,7′,8′-hexahydro-1H-[2,4′]biisoquinolinyl-8′-yl)-methanesulfonamide] | – | 2810 nM |
| CC[C@H]1c2cc(Cl)ccc2C(=O)N1c1cncc2c1CC[C@@H]2NS(C)(=O)=O (single isomer, unassigned) [Example 370, N-[(S or R)-4-((S or R)-5-Chloro-3-ethyl-1-oxo-1,3-dihydro-isoindol-2-yl)-6,7-dihydro-5H-[2]pyrindin-7-yl]-methanesulfonamide] | – | 195 nM |
| O=C(Nc1ccc(F)cc1)c1cncc(N2CCc3cc(Cl)ccc3C2=O)c1 [Example 45, 5-(6-Chloro-1-oxo-3,4-dihydro-1H-isoquinolin-2-yl)-N-(4-fluoro-phenyl)-nicotinamide] | – | 295 nM |
| CC1Cc2cc(Cl)ccc2C(=O)N1c1cncnc1 (centres unmarked) [Example 90, 6-Chloro-3-methyl-2-pyrimidin-5-yl-3,4-dihydro-2H-isoquinolin-1-one] | – | 1230 nM |
| CCC(=O)NC1CCc2c1cncc2N1Cc2cc(Cl)ccc2C1=O (single isomer, unassigned) [Example 338, N-[(S or R)-4-(5-Chloro-1-oxo-1,3-dihydro-isoindol-2-yl)-6,7-dihydro-5H-[2]pyrindin-7-yl]-propionamide] | – | > 30000 nM |
